# Results: patent US20240158446A1, “CYCLIC COMPOUND HAVING SELECTIVE INHIBITORY ACTION ON KRAS OVER HRAS AND NRAS” (CHUGAI SEIYAKU KABUSHIKI KAISHA, priority 2021, published 2024)
# Read-outs that look alike come from different tables or passages of the source.
# Key:
# [1] = biological target: GDP-bound HRAS wild-type protein (Homo sapiens, UniProt P01112); assay: Binding to HRAS by surface plasmon resonance (SPR), Single Cycle Kinetics; settings: for HRAS/KRAS (KD ratio): ratio of KD for GDP-bound HRAS wild-type protein to KD for KRAS; for HRAS/KRAS (ratio of KD value for HRAS to KD value for KRAS): GDP-bound HRAS wild-type protein vs GDP-bound KRAS wild-type protein; for HRAS/KRAS (ratio of KD value with respect to GDP-bound HRAS wild-type protein to KD value with respect to KRAS): SPR KD ratio HRAS/KRAS, class symbols
# [2] = biological target: GDP-bound KRAS wild-type protein (Homo sapiens, UniProt P01116); assay: Binding to KRAS by surface plasmon resonance (SPR), Single Cycle Kinetics
# [3] = test system: human lung cancer strain NCI-H441;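 further: cell proliferation inhibition after four days measured by CellTiter-Glo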
# [4] = biological target: GDP-bound NRAS wild-type protein (Homo sapiens, UniProt P01111); assay: Binding to NRAS by surface plasmon resonance (SPR), Single Cycle Kinetics; settings: for NRAS/KRAS (KD ratio): ratio of KD for GDP-bound NRAS wild-type protein to KD for KRAS; for NRAS/KRAS (ratio of KD value for NRAS to KD value for KRAS): GDP-bound NRAS wild-type protein vs GDP-bound KRAS wild-type protein; for NRAS/KRAS (ratio of KD value with respect to GDP-bound NRAS wild-type protein to KD value with respect to KRAS): SPR KD ratio NRAS/KRAS, class symbols
# [5] = SPR, Single Cycle Kinetics, GDP-bound KRAS wild-type protein, read-out: KRAS KD
# [6] = SPR, Single Cycle Kinetics, 1:1 binding model, GDP-bound KRAS wild-type protein, read-out: KRAS KD
# [7] = SPR Single Cycle Kinetics, GDP-bound KRAS wild-type protein, 1:1 binding model, read-out: KRAS KD
# GDP-bound NRAS wild-type protein, sequence (P01111 whole entry): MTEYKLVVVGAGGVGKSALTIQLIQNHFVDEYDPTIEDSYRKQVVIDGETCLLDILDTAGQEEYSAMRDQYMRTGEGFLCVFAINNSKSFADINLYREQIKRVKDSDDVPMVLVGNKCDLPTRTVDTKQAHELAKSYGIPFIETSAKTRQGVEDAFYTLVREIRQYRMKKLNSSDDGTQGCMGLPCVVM
# GDP-bound KRAS wild-type protein, sequence (P01116 whole entry): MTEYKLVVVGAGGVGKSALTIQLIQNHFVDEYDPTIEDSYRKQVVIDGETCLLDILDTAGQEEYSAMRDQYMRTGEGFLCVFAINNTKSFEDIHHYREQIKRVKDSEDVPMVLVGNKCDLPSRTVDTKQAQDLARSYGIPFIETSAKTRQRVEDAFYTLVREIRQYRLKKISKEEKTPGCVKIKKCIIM
# GDP-bound HRAS wild-type protein, sequence (P01112 whole entry): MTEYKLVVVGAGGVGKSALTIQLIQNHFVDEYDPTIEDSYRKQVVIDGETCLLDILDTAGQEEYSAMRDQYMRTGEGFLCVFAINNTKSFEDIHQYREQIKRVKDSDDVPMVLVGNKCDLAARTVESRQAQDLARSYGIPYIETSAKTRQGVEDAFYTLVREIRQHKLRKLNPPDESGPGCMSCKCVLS
Compound,"Kd [2, 5]",IC50 [3],HRAS/KRAS (ratio of KD value for HRAS to KD value for KRAS) ([1]; SPR),NRAS/KRAS (ratio of KD value for NRAS to KD value for KRAS) ([4]; SPR),also measured
"CCO[C@@H]1C[C@H]2C(=O)NC3(CCC3)C(=O)N(C)[C@@H](C3CCCC3)C(=O)N(C)[C@H](C(=O)N(C)CC)CC(=O)N(C)[C@H]3CCCC/C=C/c4ccc(cc4)C[C@@H](C(=O)N(C)CC(=O)N[C@@H](CCc4cc(F)c(C(F)(F)F)c(F)c4)C(=O)N2C1)N1CC/C=C\C[C@@H](C1=O)N(C)C(=O)CN(C)C(=O)[C@H]([C@@H](C)CC)NC3=O [PP1827, (1S,7S,11R,13S,19S,22S,26S,29S,35S,37Z,47E)-19-cyclopentyl-7-[2-[3,5-difluoro-4-(trifluoromethyl)phenyl]ethyl]-11-ethoxy-N-ethyl-N,3,18,21,25,31,34-heptamethyl-29-[(1S)-1-methylpropyl]-2,5,8,14,17,20,24,27,30,33,55-undecaoxo-spiro[3,6,9,15,18,21,25,28,31,34,41-undecazapentacyclo[24.15.11.2^43,46.1^35,41.0^9,13]pentapentaconta-37,43(54),44,46(53),47-pentaene-16,1′-cyclobutane]-22-carboxamide]",0.029 nM,2.4 nM,–,–,HRAS/KRAS (KD ratio) ([1]; SPR): A (a compound having 10 or more and less than 20 is denoted as A); NRAS/KRAS (KD ratio) ([4]; SPR): A (a compound having 10 or more and less than 20 is denoted as A)
CCO[C@@H]1C[C@H]2C(=O)NC3(CCCC3)C(=O)N(C)[C@@H](C3CCCC3)C(=O)N(C)[C@H](C(=O)N(C)C)CC(=O)N(C)[C@@H](C)C(=O)N[C@@H]([C@@H](C)CC)C(=O)N(C)CC(=O)N(C)[C@H]3C/C=C\CCN(C3=O)[C@@H](CC3CCCCC3)C(=O)N(C)CC(=O)N[C@@H](CCc3cc(F)c(C(F)(F)F)c(F)c3)C(=O)N2C1 [PP1470],–,111 nM,–,–,"HRAS/KRAS (ratio of KD value for HRAS to KD value for KRAS) ([1]; SPR, KD ratio class): A (a compound having 10 or more and less than 20 is denoted as A); Kd [2, 6]: 0.22 nM; NRAS/KRAS (ratio of KD value for NRAS to KD value for KRAS) ([4]; SPR, KD ratio class): A (a compound having 10 or more and less than 20 is denoted as A)"
"CCC[C@H]1C(=O)N[C@@H]([C@@H](C)CC)C(=O)N(C)CC(=O)N(C)[C@H]2C/C=C\CCN(C2=O)[C@@H](Cc2ccc(C)cc2)C(=O)N(C)CC(=O)N[C@@H](CCc2cc(F)c(C(F)(F)F)c(F)c2)C(=O)N2C[C@H](OCC)C[C@H]2C(=O)N(C)C2(CCC2)C(=O)N(C)[C@@H](C2CCCC2)C(=O)N(C)[C@H](C(=O)N2CCCCC2)CC(=O)N1C [PP3119, (2S,8S,12R,14S,20S,23S,27S,30S,36S,38Z)-20-cyclopentyl-8-[2-[3,5-difluoro-4-(trifluoromethyl)phenyl]ethyl]-12-ethoxy-4,16,19,22,26,32,35-heptamethyl-30-[(1S)-1-methylpropyl]-23-(piperidine-1-carbonyl)-27-propyl-2-(p-tolylmethyl)spiro[1,4,7,10,16,19,22,26,29,32,35-undecazatricyclo[34.5.1.0^10,14]dotetracont-38-ene-17,1′-cyclobutane]-3,6,9,15,18,21,25,28,31,34,42-undecone]",0.09 nM,–,A (a compound having 10 or more and less than 20 is denoted as A),A (a compound having 10 or more and less than 20 is denoted as A),"ratio of the KD value with respect to GDP-bound HRAS wild-type protein to the KD value with respect to KRAS ([1]; SPR, KD(HRAS)/KD(KRAS)): A (a compound having 10 or more and less than 20 is denoted as A); Kd ([2]; SPR, Single Cycle Kinetics, 1:1 binding model, read-out: KD value with respect to GDP-bound KRAS wild-type protein): 0.09 nM; IC50 ([3]; read-out: NCI-H441 cell proliferation inhibitory activity, 50% proliferation inhibitory concentration (IC50 value), NCI-H441, four days, CellTiter-Glo): 3.5 nM; ratio of the KD value with respect to GDP-bound NRAS wild-type protein to the KD value with respect to KRAS ([4]; SPR, KD(NRAS)/KD(KRAS)): A (a compound having 10 or more and less than 20 is denoted as A)"
CCO[C@@H]1C[C@H]2C(=O)NC3(CCC3)C(=O)N(C)[C@@H](C3CCCC3)C(=O)N(C)[C@H](C(=O)N3CCOCC3)CC(=O)N(C)[C@@H](CC(C)C)C(=O)N[C@@H]([C@@H](C)CC)C(=O)N(C)CC(=O)N(C)[C@H]3CCCCCN(C3=O)[C@@H](Cc3ccc4ccsc4c3)C(=O)N(C)CC(=O)N[C@@H](CCc3cc(F)c(C(F)(F)F)c(F)c3)C(=O)N2C1 [PP0921],2.6 nM,139 nM,B (a compound having 3 or more and less than 10 is denoted as B),B (a compound having 3 or more and less than 10 is denoted as B),–
CCC[C@H]1C(=O)N[C@@H](CC(C)C)C(=O)N(CCOC)CC(=O)N(C)[C@H]2C/C=C\CCN(C2=O)[C@@H](Cc2ccc(C)cc2)C(=O)N(C)CC(=O)N[C@@H](CCc2cc(F)c(C(F)(F)F)c(F)c2)C(=O)N2C[C@H](OCC)C[C@H]2C(=O)NC2(CC(C)(C)C2)C(=O)N(C)[C@@H](C2CCCC2)C(=O)N(C)[C@H](C(=O)N(C)C)CC(=O)N1C [PP2520],3.3 nM,210 nM,A (a compound having 10 or more and less than 20 is denoted as A),A (a compound having 10 or more and less than 20 is denoted as A),–
CCO[C@@H]1C[C@H]2C(=O)NC3(CC(C)(C)C3)C(=O)N(C)[C@@H](C3CCCC3)C(=O)N(C)[C@H](C(=O)N3CCCCC3)CC(=O)N(C)[C@@H](COC)C(=O)N[C@@H]([C@@H](C)CC)C(=O)N(C)CC(=O)N(C)[C@H]3C/C=C\CCN(C3=O)[C@@H](Cc3ccc(C(F)(F)F)cc3)C(=O)N(C)CC(=O)N[C@@H](CCc3ccc(Cl)c(Cl)c3)C(=O)N2C1 [PP2670],–,25.2 nM,–,–,"HRAS/KRAS (ratio of KD value with respect to GDP-bound HRAS wild-type protein to KD value with respect to KRAS) [1]: A (a compound having 10 or more and less than 20 is denoted as A); Kd [2, 7]: 0.48 nM; NRAS/KRAS (ratio of KD value with respect to GDP-bound NRAS wild-type protein to KD value with respect to KRAS) [4]: AA (a compound having 20 or more is denoted as AA)"

# More lines, main results first:
"Kd [2, 5]",IC50 [3],Compound,HRAS/KRAS (ratio of KD value for HRAS to KD value for KRAS) ([1]; SPR),NRAS/KRAS (ratio of KD value for NRAS to KD value for KRAS) ([4]; SPR),also measured
0.09 nM,4.1 nM,CCOC[C@H]1C(=O)N[C@@H]([C@@H](C)CC)C(=O)N(C)CC(=O)N(C)[C@H]2C/C=C\CCN(C2=O)[C@@H](Cc2ccc(C)cc2)C(=O)N(C)CC(=O)N[C@@H](CCc2cc(F)c(C(F)(F)F)c(F)c2)C(=O)N2C[C@H](OCC)C[C@H]2C(=O)NC2(CC(C)(C)C2)C(=O)N(C)[C@@H](C2CCCC2)C(=O)N(C)[C@H](C(=O)N(C)CC)CC(=O)N1C [PP2404],A (a compound having 10 or more and less than 20 is denoted as A),A (a compound having 10 or more and less than 20 is denoted as A),–
0.09 nM,9.2 nM,CCCOC[C@H]1C(=O)N[C@@H]([C@@H](C)CC)C(=O)N(C)CC(=O)N(C)[C@H]2C/C=C\CCN(C2=O)[C@@H](Cc2ccc(C)cc2)C(=O)N(C)CC(=O)N[C@@H](CCc2ccc(C(F)(F)F)c(Cl)c2)C(=O)N2C[C@@H](C)C[C@H]2C(=O)NC2(CC(C)(C)C2)C(=O)N(C)[C@@H](C2CCCC2)C(=O)N(C)[C@H](C(=O)N(C)C)CC(=O)N1C [PP2453],A (a compound having 10 or more and less than 20 is denoted as A),A (a compound having 10 or more and less than 20 is denoted as A),–
0.042 nM,–,CC[C@H](C)[C@@H]1NC(=O)[C@H](CC(C)C)N(C)C(=O)C[C@@H](C(=O)N(C)C)N(C)C(=O)[C@H](C2CCCC2)N(C)C(=O)C2(CCC2)N(C)C(=O)[C@@H]2CCCN2C(=O)[C@H](CCc2cc(F)c(C(F)(F)F)c(F)c2)NC(=O)CN(C)C(=O)[C@H](Cc2ccc(C)cc2)N2CC/C=C\C[C@@H](C2=O)N(C)C(=O)CN(C)C1=O [PP1791],–,–,"HRAS/KRAS (KD ratio) ([1]; SPR): A (a compound having 10 or more and less than 20 is denoted as A); IC50 ([3]; read-out: NCI-H441 IC50, NCI-H441 cell proliferation, 4 days, CellTiter-Glo): 3.7 nM; NRAS/KRAS (KD ratio) ([4]; SPR): A (a compound having 10 or more and less than 20 is denoted as A)"
–,14.2 nM,CCC[C@H]1C(=O)N[C@@H]([C@@H](C)CC)C(=O)N2C[C@@H](OC)C[C@H]2C(=O)N(C)[C@H]2C/C=C\CCN(C2=O)[C@@H](Cc2ccc(C)cc2)C(=O)N(C)CC(=O)N[C@@H](CCc2ccc(C(F)(F)F)c(OC)c2)C(=O)N2C[C@H](OCC)C[C@H]2C(=O)NC2(CC(C)(C)C2)C(=O)N(C)[C@@H](C2CCCC2)C(=O)N(C)[C@H](C(=O)N(C)C)CC(=O)N1C [PP2557],–,–,"HRAS/KRAS (ratio of KD value with respect to GDP-bound HRAS wild-type protein to KD value with respect to KRAS) [1]: B (a compound having 3 or more and less than 10 is denoted as B); Kd [2, 7]: 0.3 nM; NRAS/KRAS (ratio of KD value with respect to GDP-bound NRAS wild-type protein to KD value with respect to KRAS) [4]: A (a compound having 10 or more and less than 20 is denoted as A)"
–,10.2 nM,CCO[C@@H]1C[C@H]2C(=O)NC3(CCC3)C(=O)N(C)[C@@H](C3CCCC3)C(=O)N(C)[C@H](C(=O)N(C)C)CC(=O)N(C)[C@@H](CC(C)C)C(=O)N[C@@H]([C@@H](C)CC)C(=O)N(C)CC(=O)N(C)[C@H]3C/C=C\CCN(C3=O)[C@@H](Cc3ccc(C(F)(F)F)cc3)C(=O)N(C)CC(=O)N[C@@H](CCc3ccc(Cl)c(Cl)c3)C(=O)N2C1 [PP1251],–,–,"HRAS/KRAS (ratio of KD value for HRAS to KD value for KRAS) ([1]; SPR, KD ratio class): A (a compound having 10 or more and less than 20 is denoted as A); Kd [2, 6]: 0.18 nM; NRAS/KRAS (ratio of KD value for NRAS to KD value for KRAS) ([4]; SPR, KD ratio class): AA (a compound having 20 or more is denoted as AA)"
